Results from paper PMC11234460, “In Silico Discovery of Stapled Peptide Inhibitor Targeting the Nur77‐PPARγ Interaction and Its Anti‐Breast‐Cancer Efficacy” (Advanced Science, 2024).
Values belong to the compound of their own block, whether it stands above or below them. Where a SMILES comes first, the peptide text is derived from it. Bridges are numbered along the chain shown (N, C = ends). [ ]: non-standard residue; d: D form. S5 = C=CCCC[C@](C)(N)C(=O)O

Columns and labels:
Nur77-PPARγ complex = target: T1, Nur77-PPARγ complex (Homo sapiens, UniProt P22736); experiment: NanoBiT assay of Nur77-PPARγ complex formation in HEK293T cells; type: cell-based; conditions: 1 × 10^−5 M peptide, 1 h, n = 3
T1 construct: expressed in transfected cells; host or cells: HEK293T
T1 sequence (P22736 whole entry, one chain of several): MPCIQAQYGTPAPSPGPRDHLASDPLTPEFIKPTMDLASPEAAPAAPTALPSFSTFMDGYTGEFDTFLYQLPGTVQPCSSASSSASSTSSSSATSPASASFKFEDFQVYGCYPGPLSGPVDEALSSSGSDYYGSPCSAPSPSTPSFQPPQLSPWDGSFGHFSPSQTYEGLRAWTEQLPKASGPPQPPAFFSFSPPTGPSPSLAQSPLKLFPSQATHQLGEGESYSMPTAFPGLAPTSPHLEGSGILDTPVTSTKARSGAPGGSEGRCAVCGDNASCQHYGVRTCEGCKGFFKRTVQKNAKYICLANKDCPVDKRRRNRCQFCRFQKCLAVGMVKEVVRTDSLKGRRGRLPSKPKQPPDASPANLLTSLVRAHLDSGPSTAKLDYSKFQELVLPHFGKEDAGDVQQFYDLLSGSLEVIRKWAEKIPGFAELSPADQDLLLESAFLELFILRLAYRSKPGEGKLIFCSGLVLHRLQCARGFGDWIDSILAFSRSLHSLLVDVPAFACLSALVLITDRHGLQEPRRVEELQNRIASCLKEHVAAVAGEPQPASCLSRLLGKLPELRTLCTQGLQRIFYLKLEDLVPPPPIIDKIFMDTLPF
Description: HEK293T cells were seeded in a poly‐d‐lysine‐coated black 96‐well cell culture plate at 10 000 cells per well in 100 µL culture medium. The next day, the master mix of 100 ng receptor construct containing the PPARγ‐LargeBit and SmallBit‐Nur77 plasmids (w/w, 50 ng:50 ng) was diluted in Opti‐MEM Medium (Gibco, 11058‐021), then P3000 Reagent was added. Meanwhile, 0.15 µL Lipofectamine 3000 reagent (ThermoFisher, L3000015) was added to 5 µL Opti‐MEM Medium. Subsequently, diluted DNA was added to Lipofectamine 3000 reagent (V/V, 1:1) and incubated for 15 min at room temperature. A mixture containing the above plasmids and Lipofectamine 3000 was prepared and added to each well. After 24 h, the cells were treated with 1 × 10^−5 M peptides (TAT, T‐CY14, S‐CY14, and ST‐CY14) or variable concentrations of ST‐CY‐14 (0.1/0.2/0.5/1/2/5/10/20/40 × 10^−6 M) for 1 h. The culture medium was replaced with 90 µL Tyrode's solution (Solarbio, T1420). Then, 10 µL furimazine (5 × 10^−5 M) was added to each well and the luminescence signal was measured every 86 s for 1 h at 37 °C.

[1] = CD spectroscopy, α-helicity; type: physicochemical; conditions: 5 × 10^−5 M peptide in H2O, 25 °C, 1 mm cuvette, 185-260 nm
Description: The detection wavelengths of the peptides were 214 and 254 nm. Solvent A: H2O (containing 0.1% TFA) and solvent B: acetonitrile (containing 0.1% TFA) were used as solvents in linear gradient mixtures. Peptide purification was performed by semi‐preparative HPLC using an XBridge Prep C18 column (19 × 250 mm, 10 µm particle size, flow rate of 20 mL min^−1). Solvents A and B were the same as those in the peptide analysis procedure. The peptides were dissolved in H2O to a final concentration of 5 × 10^−5 M. The purified peptide was detected using a mass spectrometer (6410 Triple Quad LC/MS, Agilent, USA) (Table S2, Supporting Information). The solvent was 80% methanol and 20% H2O (containing 0.1% formic acid). The CD spectra were obtained with a 1 mm quartz cuvette on a BRIGHT TIME Chirasca (Applied Photophysics, Britain) spectropolarimeter with a scan wavelength between 185–260 nm at 25 °C. The helicity of each peptide was calculated by the literature equation.^[ [24] ^]

Solubility test in PBS = type: physicochemical; conditions: 1 mg in 50 µL, gradient diluted from 20 to 0.078125 mg mL^−1, OD at 600 nm (turbidity), plate reader
Description: Mix 1 mg ST‐CY14 or Csn‐B (Shanghai Sunny Biotech) in 50 µL PBS buffer, and then transfer 40 µL the suspension to a 96‐well plate. The suspension was gradient diluted from 20 to 0. 07 8125 mg mL^−1. OD values were measured at 600 nm on a Cytation 5 (Biotek, USA) plate reader. PBS was set as a blank control.

α-chymotrypsin = experiment: Protease stability in α-chymotrypsin solution; type: in vitro ADME; conditions: α-chymotrypsin solution; α-chymotrypsin 0.5 ng µL^−1 in PBS (5 × 10^−2 M, 2 × 10^−3 M CaCl2, pH 7.4); 100 µL of 1 × 10^−3 M peptide + 1 mL enzyme; room temperature; 5-480 min; quenched with 1 M HCl; analytical HPLC at 214 nm
Description: The peptides were dissolved in PBS (pH 7.4) to a final concentration of 1 × 10^−3 M. α‐Chymotrypsin was dissolved in PBS (5 × 10^−2 M, containing 2 × 10^−3 M CaCl2, pH 7.4) to a final concentration of 0.5 ng µL^−1. Subsequently, 100 µL peptides were incubated with α‐chymotrypsin (1 mL) at room temperature, and 100 µL of the digestion mixture was collected at different times (5/10/20/30/60/120/240/480 min) and added to a centrifuge tube containing 20 µL of 1 M HCl to quench the enzymatic reaction. The solution of α‐Chymotrypsin peptide fragments was monitored by analytical HPLC to determine the fraction of protease degradation at 214 nm.

MCF7 cells [2] = experiment: Western blot of Nur77, CD36 and FABP4; type: cell-based, human
Description: (§1) MCF7 and MDA‐MB‐231 cells were treated with various concentrations of peptide. The cells were then collected and lysed in NP40 lysis buffer. Total protein was quantified using a BCA assay kit (Beyotime, P0010S). The proteins were separated by SDS‐PAGE and transferred onto a PVDF membrane. The PVDF membrane was blocked in TBST containing 5% non‐fat milk, and then incubated with primary antibodies overnight at 4 °C. Subsequently, membranes were incubated with horseradish peroxidase‐conjugated antirabbit or antimouse IgG secondary antibody for 1 h at room temperature. The membranes were analyzed by a Tanon‐5200 Multi Gel Imaging Analysis System (Tanon) and quantified by ImageJ software.

MDA-MB-231 cells [3] = experiment: Western blot of Nur77, CD36 and FABP4; type: cell-based
Description: as §1

MCF7 cells [4] = experiment: Transwell cell migration analysis; type: cell-based, human; conditions: MCF7, 12 h
Description: (§2) 600 µL DMEM complete medium was added to the lower chamber of the Transwell. Next, 2×10^4 cells in 100 µL DMEM medium, containing 1, 2, 5, 10, or 2 × 10^−5 M peptides, were added to the upper chamber of the Transwell. The cells were incubated for 12 h at 37 °C and 5% CO2. After the incubation period, the medium was discarded, and the chamber was washed with PBS. The cells were then fixed with 4% paraformaldehyde for 20 min. The upper chamber was subsequently soaked in crystal violet for 20 min, washed with PBS, and observed under a microscope for analysis.

MDA-MB-231 cells [5] = experiment: Transwell cell migration analysis; type: cell-based; conditions: MDA-MB-231, 12 h
Description: as §2

MCF7 cells [6] = experiment: Scratch (wound-healing) assay; type: cell-based, human; conditions: MCF7, 12 h
Description: (§3) MCF7 and MDA‐MB‐231 cells were seeded in 6‐well plates and cultured overnight. Once the cell density reached 90%, a line was scratched along the center of the 6‐well plate and images were taken randomly in the scratch domain under a microscope. The cells in each well were then treated with peptides of varying concentrations for 12 h, after which images were taken again in the scratch domain. The formula used to calculate the scratch healing rate was as follows: Scratch healing rate (%) = [(Scratch area at 0 h – Scratch area at 12 h) […] Scratch area at 0 h] × 100%.

MDA-MB-231 cells [7] = experiment: Scratch (wound-healing) assay; type: cell-based; conditions: MDA-MB-231, 12 h
Description: as §3

- Effect on NanoBiT luminescence (Nur77-PPARγ complex) (Nur77-PPARγ complex): minimal effects on the luminescence
- α-Helicity (CD) [1]: 15.6%
SMILES: C[C@@H](O)[C@@H]1NC(=O)[C@H](CCCNC(=N)N)NC(=O)[C@H](CCCNC(=N)N)NC(=O)[C@@](C)(NC(=O)[C@H](Cc2ccccc2)NC(=O)CNC(=O)[C@H](CCCCN)NC(=O)[C@H](CS)NC(=O)CNC(=O)[C@H](CCC(=O)O)NC(=O)[C@@H](N)CS)CCCC=CCCC[C@@](C)(C(=O)N[C@@H](CCCNC(=N)N)C(=O)N[C@@H](Cc2ccc(O)cc2)C(N)=O)NC1=O [S-CY14] (H-CEGCKGF[S5]RRT[S5]RY-NH2; staple 8-12)

- Effect on NanoBiT luminescence (Nur77-PPARγ complex) (Nur77-PPARγ complex): minimal effects on the luminescence
SMILES: N=C(N)NCCC[C@H](NC(=O)[C@H](CCCNC(=N)N)NC(=O)[C@H](CCCNC(=N)N)NC(=O)[C@H](CCC(N)=O)NC(=O)[C@H](CCCNC(=N)N)NC(=O)[C@H](CCCNC(=N)N)NC(=O)[C@H](CCCCN)NC(=O)[C@H](CCCCN)NC(=O)[C@H](CCCNC(=N)N)NC(=O)CNC(=O)[C@@H](N)Cc1ccc(O)cc1)C(N)=O [TAT, reference compound]

- Solubility in PBS (Solubility test in PBS): ≈ 1 mg mL^−1
SMILES: CCCCCCCC(=O)c1c(O)cc(O)cc1CC(=O)OCC [Csn-B, cytosporone B, reference compound]

SMILES: CC[C@H](C)[C@H](NC(=O)[C@@H](NC(=O)[C@H](CCCNC(=N)N)NC(=O)[C@H](CCCNC(=N)N)NC(=O)[C@H](Cc1ccccc1)NC(=O)[C@H](Cc1ccccc1)NC(=O)CNC(=O)[C@H](CCCCN)NC(=O)[C@H](CS)NC(=O)CNC(=O)[C@H](CCC(=O)O)NC(=O)[C@@H](N)CS)[C@@H](C)O)C(=O)N[C@@H](CCCNC(=N)N)C(=O)N[C@@H](Cc1ccc(O)cc1)C(=O)N[C@@H](Cc1ccc(O)cc1)C(=O)NCC(=O)N[C@@H](CCCNC(=N)N)C(=O)N[C@@H](CCCCN)C(=O)N[C@@H](CCCCN)C(=O)N[C@@H](CCCNC(=N)N)C(=O)N[C@@H](CCCNC(=N)N)C(=O)N[C@@H](CCC(N)=O)C(=O)N[C@@H](CCCNC(=N)N)C(=O)N[C@@H](CCCNC(=N)N)C(=O)N[C@@H](CCCNC(=N)N)C(N)=O [T-CY14] (H-CEGCKGFFRRTIRYYGRKKRRQRRR-NH2)
- half-life at 90.9 µM (α-chymotrypsin): 4.94 min
- CD36 and FABP4 protein expression (immunoblot) (MCF7 cells [2]): had some effect, but its efficacy was much lower
- Nur77 protein expression (immunoblot) (MCF7 cells [2]): increase in Nur77 expression
- CD36 and FABP4 protein expression (immunoblot) (MDA-MB-231 cells [3]): had some effect, but its efficacy was much lower
- Nur77 protein expression (immunoblot) (MDA-MB-231 cells [3]): increase in Nur77 expression
- Transwell transmigration (MCF7 cells [4]): inhibited the transmigration
- Transwell transmigration (MDA-MB-231 cells [5]): inhibited the transmigration
- Scratch healing (MCF7 cells [6]): suppressed the scratch healing
- Scratch healing (MDA-MB-231 cells [7]): suppressed the scratch healing
